The target in assay [1] is T1, SHP2 (Homo sapiens, UniProt Q06124).
T1 construct: purchased BPS Bioscience, Inc., San Diego, CA, USA
T1 sequence (Q06124 1-593): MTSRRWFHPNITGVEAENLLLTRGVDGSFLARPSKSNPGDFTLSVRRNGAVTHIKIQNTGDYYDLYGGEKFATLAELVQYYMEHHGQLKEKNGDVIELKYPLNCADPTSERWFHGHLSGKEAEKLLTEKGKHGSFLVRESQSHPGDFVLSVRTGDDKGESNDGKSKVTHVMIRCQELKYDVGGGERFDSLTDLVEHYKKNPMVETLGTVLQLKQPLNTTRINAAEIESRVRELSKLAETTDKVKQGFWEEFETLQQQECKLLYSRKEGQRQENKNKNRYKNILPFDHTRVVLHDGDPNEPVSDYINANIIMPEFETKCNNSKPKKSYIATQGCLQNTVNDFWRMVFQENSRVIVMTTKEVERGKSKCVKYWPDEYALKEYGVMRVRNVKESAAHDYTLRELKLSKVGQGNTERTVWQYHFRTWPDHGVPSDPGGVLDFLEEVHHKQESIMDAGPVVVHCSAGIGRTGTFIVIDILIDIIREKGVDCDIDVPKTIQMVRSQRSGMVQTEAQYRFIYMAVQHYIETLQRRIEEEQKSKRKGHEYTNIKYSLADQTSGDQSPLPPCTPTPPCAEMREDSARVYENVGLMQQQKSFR
Put plainly: Enzymatic SHP2 inhibition assay (pNPP phosphatase activity). As to conditions: for inhibition at 100 µM: read-out: inhibition of SHP2 enzyme; for pIC50: pNPP substrate, read-out: SHP2 Obtained IC50. Format: biochemical. As for the experimental part: Phosphatase Activity Assay (PTP) using p-nitrophenyl phosphate (pNPP) as a substrate was carried out in a total volume of 100 µL. This was done by monitoring the increase in phosphatase absorbance at 405 nm in the presence of the substrate using 96-well microplate reader (Thermo Scientific Multiskan GO, Waltham, MA, USA). The standard reaction mixture consisted of PTP buffer (100 mM NaCl, 2 mM EDTA, 50 mM HEPES, 3 mM DTT, pH 7.4), 100 nM of Shp2 (BPS Bioscience, Inc., San Diego, CA, USA), and 1 mM of pNPP incubated for 90 min at 30 °C. The enzymatic reaction was stopped by the addition of 50 µL of 5 M NaOH. For inhibition reaction, SHP2 enzyme was preincubated with 100 µM compound or their vehicle (DMSO) for 5 min at 37 °C, prior to the incubation with pNPP substrate for 90 min at 30 °C. The same method was used to calculate IC50 values using GraphPad Prism software 8.0 (San Diego, CA, USA). Wells with SHP2 substrate and without compounds were considered controls (enzyme activity is 100%).

The target in assay [2] is SHP1 (Homo sapiens, UniProt P29350). In words: Enzymatic SHP1 inhibition assay (selectivity). Type of assay: biochemical. Conditions: read-out: SHP1 Obtained IC50.
Assay [3] concerns MCF-7. In words: Cell proliferative assay (DAPI cell count). Conditions: at 20 μM, 48 h, in comparison with the vehicle. Type of assay: cell-based. As for the experimental part:
(§1) The 5 × 10^3 cells/well of MCF-7 or MDA-MB-231cell-lines were seeded in 96 well plates. The next day, cells were treated with 0.16, 0.8, 4, and 20 µM of NSC 13030, 24198, 57774, 137420, or DMSO (Sigma-Aldrich–Cat D9170, St. Louis, MO, USA) as control. After 48 h of incubation, cells were stained with DAPI (Thermo Fischer–Cat R37606, Waltham, MA, USA) and images of the entire wells were taken with a 20× objective and a DAPI filter cube using Lionheart FX automated microscope. The image analysis and cell counts were done using Gen5 software. All conditions were done in triplicates.

Assay [4] concerns MCF-7. In words: Cell viability assay (CellTiter 96 AQueous One). Format: cell-based. As to conditions: at 20 μM, 48 h. How it is done: (§2) The percentage of viable cells was determined using The CellTiter 96® AQueous One Solution Cell Proliferation Assay (Promega–Cat G3580, Madison, WI, USA). Briefly, 5 × 10^3 cells/well of MCF-7 or MDA-MB-231 were plated in a 96 well culture plate in a total volume of 100 µL/well. The next day, cells were treated with 0.16, 0.8, 4, and 20 µM of NSC 13030, 24198, 57774, 137420, or DMSO as control. After 48 h, 20 µL of CellTiter 96 AQuoeus one solution reagent was added in each well, and incubated for 4 h in a CO2 incubator at 37 °C. The percentage of living cells was calculated by dividing the OD (490 nm) of treated cells by the same concentration of DMSO controls. All conditions were done in triplicates.

The test system of assay [5] is MDA-MB-231. In words: Cell proliferative assay (DAPI cell count). Type of assay: cell-based. Conditions: at 20 μM, 48 h, in comparison with the vehicle. How it is done:
as §1

Assay [6] concerns MDA-MB-231. Put plainly: Cell viability assay (CellTiter 96 AQueous One). Type of assay: cell-based. As to conditions: at 20 μM, 48 h. As for the experimental part:
as §2

pIC50: −log10 of the molar value.

SHP1, sequence (P29350 whole entry): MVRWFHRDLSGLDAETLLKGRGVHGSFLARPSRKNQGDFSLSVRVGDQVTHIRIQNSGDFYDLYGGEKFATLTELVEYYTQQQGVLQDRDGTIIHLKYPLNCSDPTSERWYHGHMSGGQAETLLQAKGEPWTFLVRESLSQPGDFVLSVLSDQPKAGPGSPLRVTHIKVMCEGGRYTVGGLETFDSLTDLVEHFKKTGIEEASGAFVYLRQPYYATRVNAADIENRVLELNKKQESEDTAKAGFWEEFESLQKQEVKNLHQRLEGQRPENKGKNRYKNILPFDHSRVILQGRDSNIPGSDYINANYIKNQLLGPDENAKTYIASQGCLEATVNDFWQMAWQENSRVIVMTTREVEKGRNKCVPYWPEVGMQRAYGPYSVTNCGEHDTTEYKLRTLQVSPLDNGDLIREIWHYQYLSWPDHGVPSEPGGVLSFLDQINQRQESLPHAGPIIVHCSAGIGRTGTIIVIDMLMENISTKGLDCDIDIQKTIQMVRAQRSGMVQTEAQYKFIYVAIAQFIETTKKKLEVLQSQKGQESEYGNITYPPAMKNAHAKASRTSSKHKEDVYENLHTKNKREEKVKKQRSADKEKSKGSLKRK

In the case of `COc1ccc2nc3cc(Cl)ccc3c(SC(CC(=O)O)C(=O)O)c2c1` (centres unmarked) [Compound 13030], the inhibition (in general, the drop in the measured response relative to a control, in per cent) at 100 µM in assay [1] (at 100 μM compound) amounted to 98%. The pIC50 (commonly the IC50 on a negative log10 scale, so that one unit is a factor of ten) in assay [1] is 5.49; in assay [2], 4.07. In assay [3], the “reduction of MCF-7 proliferation” value was 42.1%. Further, the “reduction of MCF-7 viability” value in assay [4] was 64.4%.

In the case of `O=C(O)CSC(Nc1ccccc1C(=O)O)c1ccccc1` (centres unmarked) [Compound 24198], in assay [1] (at 100 μM compound), the inhibition at 100 µM was 99%. The pIC50 in assay [1] was 5.72; in assay [2], 4.84. In addition, the “reduction of MCF-7 proliferation” value in assay [3] was 34.7%. Moreover, the “reduction of MCF-7 viability” value in assay [4] was 65.2%.

With `Cc1c2oc3c(C)ccc(C(=O)O)c3nc-2c(C(=O)O)c(N)c1=O` [Compound 57774], in assay [1] (SHP2 over SHP1), the “selectivity, inhibition activity towards SHP2 over SHP1” value was 200 fold. Also, the “inhibition of SHP2 enzyme” value in assay [1] (at 100 μM compound, 100 µM) is “complete SHP2 inhibition”. Further, the pIC50 in assay [1] was 6.10; in assay [2] it was 3.78. In addition, the “reduction of MCF-7 proliferation” value in assay [3] is recorded as 74.5%. Further, the “reduction of MDA-MB-231 proliferation” value in assay [5] is 64%. The “reduction of MCF-7 viability” value in assay [4] worked out at 65.8%. Besides, the “reduction of MDA-MB-231 viability” value in assay [6] amounted to 36.2%.

As to `O=C(c1ccccc1)c1ccc2c(Cl)ccc(C(=O)O)c2c1C(=O)O` [Compound 137420], the inhibition at 100 µM in assay [1] (at 100 μM compound) was 71%. Moreover, in assay [1], the pIC50 was 4.48.

Consider `Cc1ccc(C(=O)Nc2ccc(S(=O)(=O)O)c3cc(S(=O)(=O)O)cc(S(=O)(=O)O)c23)cc1NC(=O)c1cccc(NC(=O)Nc2cccc(C(=O)Nc3cc(C(=O)Nc4ccc(S(=O)(=O)O)c5cc(S(=O)(=O)O)cc(S(=O)(=O)O)c45)ccc3C)c2)c1` [Suramin, reference compound], for which the inhibition at 100 µM in assay [1] (at 100 μM compound) was determined as 79%. Further, the pIC50 in assay [1] is 5.35; in assay [2], 4.81.
